Values quoted from earlier work as cited in patent US20110224120A1, “WASHING, CLEANING, POST-TREATING OR AUXILIARY WASHING AGENT CONTAINING SILVER” (Henkel AG & Co. KGaA, priority 2008, published 2011).

Details: Kanicky et al., Langmuir 2000, 16, 172-177

- pKa value: 8.15
Compound: CCCCCCCCCCCCCC(=O)O [myristic acid]
